What all share (assay type): biochemical
One test deals with kappa opioid receptor (Homo sapiens, UniProt P41145). The note with it: read-out: calc Ki (nM) k.
The target of a further test is delta opioid receptor (Homo sapiens, UniProt P41143). The conditions noted are these: read-out: calc Ki (nM) δ2.
For test [1], the target named is T1, human opioid receptor-like receptor (ORL-1) (Homo sapiens, UniProt P41146).
T1 construct: host or cells: HEK-293
The note with it: read-out: Nociceptin Affinity calc Ki.

For a further test, the target named is Mu opioid receptor (Homo sapiens, UniProt P35372). The note with it: read-out: calc Ki (nM) μ.

The source of these data is patent publication US7678809B2 (priority 1999, dated 2010).

As usually defined, the Ki is a measure of affinity in units of concentration, obtained from inhibition or displacement.

Bounds are passed on as bounds.

T1 sequence (P41146 whole entry): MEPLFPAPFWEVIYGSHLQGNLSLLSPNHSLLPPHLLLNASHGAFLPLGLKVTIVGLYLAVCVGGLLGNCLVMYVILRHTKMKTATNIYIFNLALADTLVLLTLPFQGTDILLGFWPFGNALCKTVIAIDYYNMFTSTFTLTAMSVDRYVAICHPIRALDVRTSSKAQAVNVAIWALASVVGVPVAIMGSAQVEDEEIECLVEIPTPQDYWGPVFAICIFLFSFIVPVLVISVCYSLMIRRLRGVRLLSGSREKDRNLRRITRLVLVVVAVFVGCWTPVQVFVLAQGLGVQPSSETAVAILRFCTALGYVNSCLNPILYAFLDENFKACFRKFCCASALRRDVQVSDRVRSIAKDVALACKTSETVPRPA
delta opioid receptor, sequence (P41143 whole entry): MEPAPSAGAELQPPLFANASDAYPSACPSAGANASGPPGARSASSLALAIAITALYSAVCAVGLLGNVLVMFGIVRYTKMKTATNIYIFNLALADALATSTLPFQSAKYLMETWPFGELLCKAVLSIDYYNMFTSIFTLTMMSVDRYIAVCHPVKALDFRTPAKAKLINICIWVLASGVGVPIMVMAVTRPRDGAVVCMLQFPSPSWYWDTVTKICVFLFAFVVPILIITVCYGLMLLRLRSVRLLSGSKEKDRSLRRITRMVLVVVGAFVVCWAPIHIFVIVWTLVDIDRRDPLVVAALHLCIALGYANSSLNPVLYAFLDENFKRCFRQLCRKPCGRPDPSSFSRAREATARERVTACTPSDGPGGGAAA
kappa opioid receptor, sequence (P41145 whole entry): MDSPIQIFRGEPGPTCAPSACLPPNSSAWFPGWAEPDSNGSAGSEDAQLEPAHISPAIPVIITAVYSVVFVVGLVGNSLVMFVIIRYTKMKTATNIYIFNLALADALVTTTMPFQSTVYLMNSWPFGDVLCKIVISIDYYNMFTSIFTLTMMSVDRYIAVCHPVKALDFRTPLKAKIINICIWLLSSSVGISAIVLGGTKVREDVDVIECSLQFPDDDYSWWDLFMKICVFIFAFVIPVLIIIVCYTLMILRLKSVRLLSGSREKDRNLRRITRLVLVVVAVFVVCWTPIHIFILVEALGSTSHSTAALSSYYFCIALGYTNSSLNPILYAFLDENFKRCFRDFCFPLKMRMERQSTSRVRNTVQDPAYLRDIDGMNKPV
Mu opioid receptor, sequence (P35372 whole entry): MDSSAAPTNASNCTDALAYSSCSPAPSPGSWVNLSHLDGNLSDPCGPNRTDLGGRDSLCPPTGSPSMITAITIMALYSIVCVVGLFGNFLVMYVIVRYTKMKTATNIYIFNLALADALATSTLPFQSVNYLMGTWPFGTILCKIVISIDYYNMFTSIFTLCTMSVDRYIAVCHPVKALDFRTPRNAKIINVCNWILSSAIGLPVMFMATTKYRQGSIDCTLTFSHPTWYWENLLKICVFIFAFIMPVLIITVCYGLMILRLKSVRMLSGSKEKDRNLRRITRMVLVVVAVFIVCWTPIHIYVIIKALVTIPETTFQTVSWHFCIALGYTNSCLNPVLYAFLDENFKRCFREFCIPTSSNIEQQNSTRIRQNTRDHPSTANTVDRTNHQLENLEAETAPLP

“1-[4-(4-propyl-1,2-cyclohexene)-4-piperidinyl]-1,3-dihydro-2H-1,3-benzamidazol-2-one”: the Ki is 1500 nM on kappa opioid receptor, 1220 nM at delta opioid receptor, 469 nM in test [1] and 265 nM at Mu opioid receptor.
On to “1-[4-(4-propylcyclohexane)-4-piperidinyl]-3-[1-oxo-ethyl]-1,3-dihydro-2H-1,3-benzamidazol-2-one”, for which the Ki on kappa opioid receptor was 1600 nM; on delta opioid receptor, above 10000 nM; in test [1] it was 464 nM; at Mu opioid receptor, 23.2 nM.
Take `O=c1[nH]c2ccccc2n1C1CCN(CCCC(c2ccc(F)cc2)c2ccc(F)cc2)CC1` [1-[4-(4,4-difluorophenylbutyl)-4-piperidinyl]-1,3-dihydro-2H-1,3-benzamidazol-2-one]: the Ki in test [1] is 420 nM.
